# What was measured:
# Format in all cases: in vivo, rat
# P2X3 mRNA = assay: RT-PCR of P2X3 mRNA expression in dorsal root ganglion of burn rats; details: n=3
# Experimental: SD rats (their body weights were between 200±20 g) were randomly divided into the group I (sham back burn), the group II (Puerarin, intraperitoneal injection), the group III (superficial second degree back burn), the group IV (superficial second degree back burn+puerarin), the group V (control) and the group VI (superficial second degree back burn+Indocin). The rats in the group IV (superficial second degree back burn+puerarin) were subjected to intraperitoneal injection of puerarin (100 mg/kg) 30 minutes before burn and after burn everyday for continuous three days. The rats in the group VI (superficial second degree back burn+Indocin) were subjected to intraperitoneal injection of idomethine (4 mg/kg/d) 30 minutes before burn and after burn everyday for continuous three days. Primer design: β-actin was selected as the internal reference and the sequences for the primers were as below: Gel image system was used to record the scanned values for spot density (average optical density) of target electrophoresis bands, and the ratio between P2X3 band and corresponding β-actin band was used as the relative amount of P2X3 mRNA expression.
# [1] = tested on: rats that suffer from neuropathic pain (chronic constriction injury of sciatic nerve); assay: Thermal hyperalgesia (thermal withdrawal latency) in rats with neuropathic pain (CCI); details: for thermal withdrawal latency (TWL) in comparison with group III (CCI): CCI rats, puerarin i.p. 50 mg/mL, 4 mL/kg daily, idomethine 4 mg/kg/d i.p. (seven days after ligation), p<0.01
# Experimental: Male SD rats, 220-250 g were provided by the Department of Experimental Animals from the Medical College of Nanchang University. The rats were divided into […] at random and 12 rats were included in each group. Experimental grouping: I (sham); II (puerarin); III (chronic constriction injuries, CCI); IV (CCI+puerarin); V (control); VI (CCI+Indo). The puerarin injection was dissolved in physiological saline and the concentration was 50 mg/mL. Group I were subjected to intraperitoneal injection of physiological saline (4 mL/kg); Group II were subjected to intraperitoneal injection of puerarin injection (4 mL/kg); Skins of the […] were cut open and their sciatic nerves were exposed, then their skin was sew up without ligating nerves. Group IV were subjected to intraperitoneal injection of puerarin injection (4 mL/kg) everyday on the first day after CCI operation. Intraperitoneal injection of idomethine (4 mg/kg/d) was carried out on the rats in […] half an hour before the operation and after the operation everyday, and the injection was carried out once a day until the test was finished.
# (§1) Thiopental sodium was used to anesthetize the rats (30 mg/kg, intraperitoneal injection), and the skin in the outer side of right thighs of the rats was cut open under sterile conditions, and blunt dissection was carried out to isolate the sciatic nerves, then the sciatic nerves were slightly ligated with 4-0 chromicized catgut and four ligations were carried out in total, and an interval of about 1 mm was left between two knots. […] The rats were raised in separate cages after the operation, and mechanical withdrawal threshold and thermal withdrawal latency were determined before the operation (0 d) and 1, 3, 5, 7, 9, 11, 14 days after the operations respectively (Time for the determination is set at 10[…]00-14[…]100 everyday, and the room temperature was maintained at 22±0.5° C.).
# The organic glass box was placed on a glass plate of 3 mm thick and BME-410C type automatic thermalgia stimulator (Institute of Biomedical Engineering, Chinese Academy of Medical Sciences) was used to irradiate the footplates of rats. The time for the appearance of leg withdrawal after the irradiation on footplates of rats by using the thermal radiation stimulator was considered as the thermal withdrawal latency (TWL). The time for cutting off was 30 seconds in order to prevent burn on tissues.
# P2X3 receptor [2] = assay: Immunohistochemistry of P2X3 receptor expression in dorsal root ganglion of CCI rats; details: L4/L5 DRG
# P2X3 receptor mRNA = assay: In situ hybridization of P2X3 receptor mRNA in dorsal root ganglion of CCI rats; details: L4/L5 DRG
# P2X3 receptor [3] = assay: Immunohistochemical analysis of P2X3 expression in dorsal root ganglion of burn rats; details: n=10
# Experimental: SD rats (their body weights were 200±20 g) were randomly divided into the group I (sham back burn), the group II (Puerarin, intraperitoneal injection), the group III (superficial second degree back burn), the group IV (superficial second degree back burn+puerarin), the group V (control) and the group VI (superficial second degree back burn+Indocin). The rats in the group IV (superficial second degree back burn+puerarin) were subjected to intraperitoneal injection of puerarin (100 mg/kg) everyday for continuous three days 30 minutes before burn and after burn. Immunohistochemical analysis was used to detect the change in P2X3 expression in dorsal root ganglion in burn position of rats. Results of immunohistochemical analysis were subjected to analysis by using Hmias-2000 high-resolution color medical image analysis system.
# P2X3 protein = P2X3 protein expression in dorsal root ganglion of burn rats (band density normalized to β-actin); details: n=3
# Experimental: SD rats (their body weights were between 200±20 g) were randomly divided into the group I (sham back burn), the group II (Puerarin, intraperitoneal injection), the group III (superficial second degree back burn), the group IV (superficial second degree back burn+puerarin), the group V (control) and the group VI (superficial second degree back burn+Indocin). The rats in the group IV (superficial second degree back burn+puerarin) were subjected to intraperitoneal injection of puerarin (100 mg/kg) everyday for continuous three days 30 minutes before burn and after burn. The rats in the group VI (superficial second degree back burn+Indocin) were subjected to intraperitoneal injection of idomethine (4 mg/kg/d) everyday for continuous three days 30 minutes before burn and after burn. Results: the optical density scanned values for the interested bands that were detected on X-ray film were read by using Alpha Imager 2200 image analysis software, and the scanned values of β-actin for different groups were used to normalize the expression level of P2X3 in corresponding groups.
# P2X3 receptor [4] = assay: Immunohistochemistry of P2X3 receptor expression in skin nerve ending of rats with back burn; details: superficial second degree back burn + puerarin injection i.v. daily for three days; saline+burn 152.63±22.62, sham 118.76±18.48
# [5] = tested on: rats that suffer from neuropathic pain (chronic constriction injury of sciatic nerve); assay: Mechanical hyperalgesia (mechanical withdrawal threshold, Von Frey) in rats with neuropathic pain (CCI)
# Experimental: Male SD rats, 220-250 g were provided by the Department of Experimental Animals from the Medical College of Nanchang University. The rats were divided into five groups at random and 12 rats were included in each group. Experimental grouping: I (sham); II (puerarin); III (chronic constriction injuries, CCI); IV (CCI+puerarin); V (control); VI (CCI+Indo). The puerarin injection was dissolved in physiological saline and the concentration was 50 mg/mL. […]
# as §1, with “C.). […]” for “C.).”
# [6] = superficial second degree back burn + drug (puerarin 100 mg/kg i.p., idomethine 4 mg/kg/d i.p., three days), burn 1.04±0.03, control 0.91±0.03
# [7] = CCI rats + drug, 14 days after operation, CCI 1.64±0.05, control 1.15±0.03
# [8] = CCI rats + drug, 14 days after operation, CCI 1.33±0.02, control 0.82±0.02
# [9] = superficial second degree back burn + drug (puerarin 100 mg/kg i.p. three days), burn 1.21±0.04, control 1.03±0.02
# [10] = superficial second degree back burn + drug (puerarin 100 mg/kg i.p., idomethine 4 mg/kg/d i.p., three days), burn 1.23±0.06, control 0.98±0.02
# [11] = puerarin alone, no CCI, 14 days
SMILES,"relative expression amount of P2X3 mRNA (after normalization with corresponding β-actin), RT-PCR (P2X3 mRNA; [6])",thermal withdrawal latency (TWL) in comparison with group III (CCI) [1],"average optical density of P2X3 positive neurons (P2X3 receptor, immunohistochemistry) (P2X3 receptor [2]; [7])","average optical density of P2X3 positive neurons (P2X3 receptor mRNA, in situ hybridization) (P2X3 receptor mRNA; [8])","average optical density (P2X3 expression, immunohistochemistry, DRG) (P2X3 receptor [3]; [9])",protein expression level of P2X3 (after normalization with corresponding β-actin) (P2X3 protein; [10]),"relative expression amount of P2X3 mRNA (after normalization with corresponding β-actin), RT-PCR (P2X3 mRNA; puerarin alone i.p., no burn)","thermal withdrawal latency, difference from group V (control) after 14 days ([1]; CCI rats + puerarin, 14 days, p>0.05)","thermal withdrawal latency, difference among sham, puerarin alone and control ([1]; puerarin alone, no CCI, p>0.05)","average optical density of P2X3 positive neurons (P2X3 receptor, immunohistochemistry) (P2X3 receptor [2]; [11])",gray scale values (average optical density) of P2X3 immunologically positive nerve ending in the skin (P2X3 receptor [4]),"average optical density of P2X3 positive neurons (P2X3 receptor mRNA, in situ hybridization) (P2X3 receptor mRNA; [11])","mechanical withdrawal threshold (MWT) in comparison with group III (CCI) ([5]; CCI rats + puerarin, seven days after ligation, p<0.01)","mechanical withdrawal threshold, difference among sham, puerarin alone and control ([5]; puerarin alone, no CCI, p>0.05)","average optical density (P2X3 expression, immunohistochemistry, DRG) (P2X3 receptor [3]; puerarin alone i.p., no burn)","protein expression level of P2X3 (after normalization with corresponding β-actin) (P2X3 protein; puerarin alone i.p., no burn)"
"COc1ccc2c(c1)c(CC(=O)O)c(C)n2C(=O)c1ccc(Cl)cc1 [Indocin, Indometacin]",0.97±0.02,increased,1.34±0.04,1.14±0.01,1.16±0.03,1.14±0.03,–,–,–,–,–,–,–,–,–,–
O=c1c(-c2ccc(O)cc2)coc2c([C@@H]3O[C@H](CO)[C@@H](O)[C@H](O)[C@H]3O)c(O)ccc12 [puerarin],0.90±0.02,significantly increased,1.28±0.04,0.98±0.05,1.10±0.02,0.93±0.02,0.89±0.02,not statistically significant,not significant,1.07±0.03,130.42±13.35,0.82±0.03,significantly increased,not significant,1.01±0.02,0.97±0.02

# — patent US8362070B2, “Application of puerarin in the preparation of P2X3 mediated drugs for pain/nervous system diseases” (Nanchang University, priority 2009, dated 2013)
